Experimental findings from patent US20220062233A1 (The Board of Trustees of the Leland Stanford Junior …, priority 2018, published 2022) are described below.

For data set [1], the system named is mutant HTT. Briefly: Mutant HTT assay in lymphoblastoid cells (LBC), Western blot. Type of data set: cell-based, human. The note with it: read-out: LBC IC20 (nM) mHTT, 3 days compound treatment. The method, then: (§1) B. Mutant and Wild-Type HTT Assay in Lymphoblastoid Cells (LBC)
(§2) a. Cell Culturing and Compound Treatment
(§3) Lymphoblastoid cells derived from a Huntington's disease patient with 250 CAG repeats in the mutant HTT allele (GM14044 from Coriell Institute) were cultured in RPMI 1640 (Corning Cellgro, 10-040-CV) containing fetal bovine serum (Atlanta Biologicals, S11150). 4×10^5 cells were seeded on a 24-well plate and incubated with testing compound for 3 days. The cell suspension was then transferred to a 1.5 ml Eppendorf tube. Cells were collected by centrifugation and washed once with PBS. After all liquid was removed, the cell pellet was placed at −80° C. for at least 10 minutes. Lysis buffer [30 mM Tris-HCl (pH 8.0), 5 mM NaCl, 0.1% Triton X-100] with the proteinase inhibitor cocktail (P8340 from Sigma-Aldrich) was then added to the cells. Following centrifugation (14 k rpm for 15 min at 4° C.), the supernatant was collected. The protein concentrations were determined by BCA assay (Pierce, ThermoFisher).
(§4) Equal amounts of protein were loaded onto 4-12% gel (Invitrogen, WG1403A). After electrophoresis, the gels were transferred to nitrocellulose membranes by wet transfer at 72V for 3 hrs. […] The protein levels of mutant HTT, wild-type HTT, TBP, and tubulin were determined by immunoblotting with anti-polyQ specific antibody (clone MW1), anti-Huntingtin antibody (Abcam, ab45169), anti-TBP antibody (Sigma, T1827) and anti-alpha tubulin antibody (Sigma, T9026). Blots were imaged on a Li-Cor Odyssey infrared imager. The band intensities were determined by Li-Cor Odyssey software.

Data set [2] deals with T1, interaction between Supt4h and NGN (subunit of Supt5h) (Homo sapiens, UniProt O00267+P63272).
T1 construct: expressed in transfected cells
Briefly: Split Gaussia luciferase complementation assay (M2-8 Luciferase). The format is cell-based. The note with it: M2-8 cells. Put shortly: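 HEK293-derived M2-8 cells inducibly express Supt4h-Gluc1 and NGN-Gluc2 fragments (stabilizing mutations) on RheoSwitch ligand addition; ligand plus compound added 24 h after plating and left 24 h. Cells frozen, lysed with 10 μg/ml native coelenterazine, 1 h room temperature dark; complemented luciferase luminescence read.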

Data set [3] has as its system M2-8 cells. Briefly: M2-8 Cell viability Assay. The following applies: at the concentration of 1000 nM. Type of data set: cell-based.
Data set [4] concerns Lymphoblastoid cells (GM14044). Briefly: LBC cell viability (Cell Titer-Glo). Type of data set: cell-based, human. The following applies: at the concentration of IC20, 3-day compound treatment. The method, then:
Cell viability was determined by Cell Titer-Glo reagent (Promega, PRG9243). After 3-day compound treatment, 15 μl of cell suspension was taken out from plate and incubated with 10 μl of CTG reagent. The values of reaction mixture were detected by Tecan.
On the technique in general: In ATP-based viability assays light output follows the ATP content of the culture.

In data set [5] the test system is mutant HTT. Briefly: Mutant HTT assay in induced pluripotent stem cells (iPSC). Type of data set: cell-based, human. The note with it: HD patient iPSCs, one day incubation; class symbols; read-out: iPSC IC20 (nM) mHTT. The method, then:
C. Mutant HTT Assay in Induced Pluripotent Stem Cells (iPSC) a. Cell Culturing and Compound Treatment
Huntington's disease patient iPSCs (ND50036 from NINDS) were detached into single cells by Accutase (25058CI from Corning), counted and plated on a 24-well plate coated with Matrigel (354277 from Corning) at density of 7,000 cells/well. After 48 hrs, compounds were added to the cell culture medium mTeSR1 (85850 from StemCell Technologies) and the cells were incubated for one day. The medium was then removed, and the cells were washed with PBS. After all liquid was removed, the plate was placed at −80° C. overnight. Lysis buffer [30 mM Tris-HCl (pH 8.0), 5 mM NaCl, 0.1% Triton X-100] with the complete proteinase inhibitor cocktail (5892791001 from Sigma-Aldrich) was then added to the cells. Cell samples were lysed on an orbital plate shaker at 4° C. at 700 rpm for 30 min. The supernatants from spinning (14 k rpm for 10 min) were collected. The protein concentrations were determined by BCA assay (23225 from Pierce, ThermoFisher). […]
b. Detection of Mutant HTT Protein
Equal amounts of protein lysate collected from each sample were added to a 96-well plate that had been coated with a human HTT specific monoclonal antibody. After washing away any unbound substances, a biotinylated anti-human mutant HTT specific detection antibody was added. Streptavidin-horseradish peroxidase was subsequently added, followed by TMB Substrate Solution, which yielded a blue product that turns yellow when the Stop Solution was added. The intensity of the color measured was in proportion to the amount of mutant HTT bound in the initial step. The mutant HTT values are then interpolated from a standard curve.

Data set [6] relates to wild-type HTT. The experiment in a line: Wild-type HTT assay in lymphoblastoid cells (LBC), Western blot. The note with it: 3 days compound treatment, read-out: LBC IC20 (nM) wtHTT. Type of data set: cell-based, human. The method, then: as §1, §2, §3, §4
In data set [7] the test system is Huntington's disease patient iPSCs (ND50036). Briefly: iPSC viability at IC20. The format is cell-based, human. The note with it: at the concentration of IC20.

In the case of `Oc1ccc(CN[C@@H]2CCCc3c2[nH]c2ccc(Br)cc32)cc1` [Compound 60, (R)-4-(((6-bromo-2,3,4,9-tetrahydro-1H-carbazol-1-yl)amino)methyl)phenol], the IC20 (in general, the concentration needed for an effect of 20%) is 101 to 300 nM in data set [1], less than 100 nM in data set [5] and greater than 1000 nM in data set [6]. Further, the IC50 (commonly the midpoint of a concentration-inhibition curve) in data set [2] is no more than 100 nM. For the same molecule, the “M2-8 Cell viability” value in data set [3] is on record as “+ (cell viability is greater than 50% at the concentration of 1000 nM)”. Further, the “LBC viability at IC20” value in data set [4] was “* (cell viability is greater than 60% at the concentration of IC20)”. The “iPSC viability at IC20” value in data set [7] is reported as “+ (cell viability is greater than 75% at the concentration of IC20)”.

In the case of `C[C@H](N[C@@H]1CCCc2c1[nH]c1ccc(Br)cc21)c1ccccc1` (single isomer, unassigned) [Compound 14], the figures for the IC20 in data set [1], in data set [5] and in data set [6] were less than 100 nM, less than 100 nM and greater than 1000 nM, respectively. Also, the IC50 in data set [2] is no more than 100 nM. In addition, in data set [3], the “M2-8 Cell viability” value is “+ (cell viability is greater than 50% at the concentration of 1000 nM)”. In addition, in data set [4], the “LBC viability at IC20” value is listed as “* (cell viability is greater than 60% at the concentration of IC20)”. Moreover, the “iPSC viability at IC20” value in data set [7] is on record as “+ (cell viability is greater than 75% at the concentration of IC20)”.

Turning to `COC(C)(C)c1ccc(CN[C@@H]2CCCc3c2[nH]c2ccc(Br)cc32)cc1` [Compound 48, (R)-6-bromo-N-(4-(2-methoxypropan-2-yl)benzyl)-2,3,4,9-tetrahydro-1H-carbazol-1-amine], the IC20 in data set [1] was less than 100 nM; in data set [5], less than 100 nM; in data set [6], greater than 500 nM. In addition, in data set [2], the half-inhibitory concentration (IC50) was no more than 100 nM. Also, the “M2-8 Cell viability” value in data set [3] was “+ (cell viability is greater than 50% at the concentration of 1000 nM)”. For the same molecule, the “LBC viability at IC20” value in data set [4] is “* (cell viability is greater than 60% at the concentration of IC20)”. Further, in data set [7], the “iPSC viability at IC20” value is “+ (cell viability is greater than 75% at the concentration of IC20)”.

`C=Cc1ccc2[nH]c3c(c2c1)CCC[C@H]3NCc1ccccc1` [Compound 45]: the IC20 in data set [1] is less than 100 nM; in data set [5] it was less than 100 nM; in data set [6] it was greater than 1000 nM. The molecule also came in with an IC50 in data set [2] of no more than 100 nM. The “M2-8 Cell viability” value in data set [3] is on record as “+ (cell viability is greater than 50% at the concentration of 1000 nM)”. For the same molecule, the “LBC viability at IC20” value in data set [4] was “* (cell viability is greater than 60% at the concentration of IC20)”. Moreover, the “iPSC viability at IC20” value in data set [7] was “+ (cell viability is greater than 75% at the concentration of IC20)”.

In the case of `OC1(c2ccc(CN[C@@H]3CCCc4c3[nH]c3ccc(Br)cc43)cc2)CC1` [Compound 50, (R)-1-(4-(((6-bromo-2,3,4,9-tetrahydro-1H-carbazol-1-yl)amino)methyl)phenyl) cyclopropan-1-ol], the IC20 was less than 100 nM in data set [1], less than 100 nM in data set [5] and greater than 500 nM in data set [6]. Moreover, the IC50 in data set [2] was no more than 100 nM. For the same molecule, the “M2-8 Cell viability” value in data set [3] is given as “+ (cell viability is greater than 50% at the concentration of 1000 nM)”. Also, the “LBC viability at IC20” value in data set [4] is given as “* (cell viability is greater than 60% at the concentration of IC20)”. Further, the “iPSC viability at IC20” value in data set [7] is “+ (cell viability is greater than 75% at the concentration of IC20)”.

For `COCC(N[C@@H]1CCCc2c1[nH]c1ccc(Br)cc21)c1ccc(C(C)(C)O)cc1` (single isomer, unassigned) [Compound 52], the IC20 is less than 100 nM in data set [1], less than 100 nM in data set [5] and greater than 500 nM in data set [6]. The same molecule had an IC50 in data set [2] of no more than 100 nM. Moreover, the “M2-8 Cell viability” value in data set [3] is “+ (cell viability is greater than 50% at the concentration of 1000 nM)”. In addition, the “LBC viability at IC20” value in data set [4] is “* (cell viability is greater than 60% at the concentration of IC20)”. In addition, in data set [7], the “iPSC viability at IC20” value is recorded as “+ (cell viability is greater than 75% at the concentration of IC20)”.

As to `OCc1ccc(CN[C@@H]2CCCc3c2[nH]c2ccc(Br)nc32)cc1` [Compound 65], the IC20 in data set [1] is 301 to 1000 nM; in data set [5], less than 100 nM; in data set [6], greater than 1000 nM. This molecule also displayed a concentration for half-maximal inhibition (IC50) in data set [2] of no more than 100 nM. Also, the “M2-8 Cell viability” value in data set [3] was “+ (cell viability is greater than 50% at the concentration of 1000 nM)”. Moreover, the “LBC viability at IC20” value in data set [4] was “* (cell viability is greater than 60% at the concentration of IC20)”. Further, the “iPSC viability at IC20” value in data set [7] is “+ (cell viability is greater than 75% at the concentration of IC20)”.

Consider `CC(C)(O)c1ccc(CN[C@@H]2CCCc3c2[nH]c2ccc(Br)nc32)cc1` [Compound 63], for which the IC20 in data set [1] is less than 100 nM; in data set [5], less than 100 nM; in data set [6], greater than 500 nM. The molecule further gave an IC50 in data set [2] of no more than 100 nM. Moreover, the “M2-8 Cell viability” value in data set [3] is on record as “+ (cell viability is greater than 50% at the concentration of 1000 nM)”. In addition, in data set [4], the “LBC viability at IC20” value is given as “* (cell viability is greater than 60% at the concentration of IC20)”. The “iPSC viability at IC20” value in data set [7] was “+ (cell viability is greater than 75% at the concentration of IC20)”.

Regarding `OC1(c2ccc(CN[C@@H]3CCCc4c3[nH]c3ccc(Br)nc43)cc2)CC1` [Compound 71], the IC50 in data set [2] is no more than 100 nM. Further, the “M2-8 Cell viability” value in data set [3] is recorded as “+ (cell viability is greater than 50% at the concentration of 1000 nM)”. Also, the IC20 in data set [5] is less than 100 nM. Further, in data set [7], the “iPSC viability at IC20” value was “+ (cell viability is greater than 75% at the concentration of IC20)”.

For `C[C@@H](N[C@@H]1CCCc2c1[nH]c1ccc(Br)cc21)c1ccccc1` (single isomer, unassigned) [Compound 13], the IC20 in data set [1] was 101 to 300 nM; in data set [5], less than 100 nM; in data set [6], greater than 1000 nM. In addition, the half-maximal inhibitory concentration (IC50) in data set [2] is no more than 100 nM. Also, the “M2-8 Cell viability” value in data set [3] is listed as “+ (cell viability is greater than 50% at the concentration of 1000 nM)”. Moreover, in data set [4], the “LBC viability at IC20” value was “* (cell viability is greater than 60% at the concentration of IC20)”. In data set [7], the “iPSC viability at IC20” value was “+ (cell viability is greater than 75% at the concentration of IC20)”.

`OC1(c2ccc(CN[C@@H]3CCCc4c3[nH]c3ccc(Br)nc43)s2)CC1` [Compound 70] registered an IC50 in data set [2] of no more than 100 nM. Further, the “M2-8 Cell viability” value in data set [3] was “+ (cell viability is greater than 50% at the concentration of 1000 nM)”. Besides, the IC20 in data set [5] is less than 100 nM. Also, the “iPSC viability at IC20” value in data set [7] was “+ (cell viability is greater than 75% at the concentration of IC20)”.

With `CC(C)(O)c1ccc(CN[C@@H]2CCCc3c2[nH]c2ccc(Br)nc32)s1` [Compound 66], the IC20 in data set [1] is less than 100 nM; in data set [5] it was less than 100 nM; in data set [6], greater than 1000 nM. In data set [2], this molecule returned an IC50 of no more than 100 nM. Further, the “M2-8 Cell viability” value in data set [3] is given as “+ (cell viability is greater than 50% at the concentration of 1000 nM)”. Also, the “LBC viability at IC20” value in data set [4] is on record as “* (cell viability is greater than 60% at the concentration of IC20)”. The “iPSC viability at IC20” value in data set [7] was “+ (cell viability is greater than 75% at the concentration of IC20)”.
